Drawing on ChEMBL document CHEMBL3132808, “Exceptionally strong intermolecular association in hydrophobic DNA minor groove binders and their potential therapeutic consequences” (Medchemcomm, 2013), this text covers Ka for 4 compounds.

The structures appear in SMILES notation. The source made the active and inactive calls. The calls are words filed in the database; no cut-off is given here.

The subject of the assay is Nucleic Acid. The assay can be described thus: Binding affinity to […] DNA oligomer d(CGATATATCG)2 (unknown origin) minor groove assessed as association constant by NMR. It is filed as nucleic-acid assay.
Consider `CC(C)c1sc(NC(=O)c2cc(NC(=O)c3cc(NC=O)cn3C)cn2C)nc1C(=O)NCCCN(C)C`, for which the Ka entry was “inactive”.

Take `CC(C)c1sc(NC(=O)c2cc(NC(=O)c3cc(NC(=O)c4cccnc4)cn3C)cn2C)nc1C(=O)NCCCN(C)C`: the Ka stood at 6.1 ×10⁴ /M. Consider `COc1cccc(/C=C/c2ccc(C(=O)Nc3cc(C(=O)NCCN4CCOCC4)n(C)c3)cc2)c1`, for which the Ka result was “inactive”.

For `CC(=O)Nc1cn(C)c(C(=O)Nc2cc(C(=O)Nc3nc(C(=O)NCCCN(C)C)c(C(C)C)s3)n(C)c2)n1`, the Ka entry is “inactive”.
